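In this assay, cells in 96-well plates receive the compound at five concentrations for 48 hours. Endpoints are linearly interpolated between the surrounding concentrations. TGI: concentration producing complete growth inhibition.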
Columns and labels:
Assay in all cases: NCI-60 cell line screen, 48 h
IGROV1 ovarian = system: IGROV1 ovarian
SK-OV-3 ovarian = system: SK-OV-3 ovarian
HCT-116 colon = system: HCT-116 colon
A498 renal = system: A498 renal
MCF7 breast = system: MCF7 breast
TK-10 renal = system: TK-10 renal
K-562 leukemia = system: K-562 leukemia
HT29 colon = system: HT29 colon
CAKI-1 renal = system: CAKI-1 renal
MALME-3M melanoma = system: MALME-3M melanoma
MDA-N = system: MDA-N
UACC-257 melanoma = system: UACC-257 melanoma
COLO 205 colon = system: COLO 205 colon
M14 melanoma = system: M14 melanoma
SF-539 CNS = system: SF-539 CNS
SF-268 CNS = system: SF-268 CNS
MOLT-4 leukemia = system: MOLT-4 leukemia
SK-MEL-2 melanoma = system: SK-MEL-2 melanoma
OVCAR-8 ovarian = system: OVCAR-8 ovarian
EKVX NSCLC = system: EKVX NSCLC
MDA-MB-435 = system: MDA-MB-435
UO-31 renal = system: UO-31 renal
OVCAR-5 ovarian = system: OVCAR-5 ovarian
NCI-H460 lung = system: NCI-H460 lung
U251 CNS = system: U251 CNS
LOX IMVI melanoma = system: LOX IMVI melanoma
RPMI-8226 leukemia = system: RPMI-8226 leukemia
DU-145 prostate = system: DU-145 prostate
786-0 renal = system: 786-0 renal
HCT-15 colon = system: HCT-15 colon
HOP-92 NSCLC = system: HOP-92 NSCLC
HCC-2998 colon = system: HCC-2998 colon
OVCAR-3 ovarian = system: OVCAR-3 ovarian
A549 NSCLC = system: A549 NSCLC
SN12C renal = system: SN12C renal
NCI/ADR-RES ovarian = system: NCI/ADR-RES ovarian
HOP-62 NSCLC = system: HOP-62 NSCLC
BT-549 breast = system: BT-549 breast
SW-620 colon = system: SW-620 colon
SK-MEL-5 melanoma = system: SK-MEL-5 melanoma
HS 578T breast = system: HS 578T breast
HL-60(TB) leukemia = system: HL-60(TB) leukemia
NCI-H23 lung = system: NCI-H23 lung
RXF 393 renal = system: RXF 393 renal
PC-3 prostate = system: PC-3 prostate
SNB-75 CNS = system: SNB-75 CNS
SK-MEL-28 melanoma = system: SK-MEL-28 melanoma
SF-295 CNS = system: SF-295 CNS
SNB-19 CNS = system: SNB-19 CNS
NCI-H522 lung = system: NCI-H522 lung
OVCAR-4 ovarian = system: OVCAR-4 ovarian
KM12 colon = system: KM12 colon
MDA-MB-231 breast = system: MDA-MB-231 breast
CCRF-CEM leukemia = system: CCRF-CEM leukemia
UACC-62 melanoma = system: UACC-62 melanoma
ACHN renal = system: ACHN renal
NCI-H226 lung = system: NCI-H226 lung

O=C(c1ccccc1F)c1c(NCc2ccccc2)c(=O)c1=O
TGI (IGROV1 ovarian): > 100 µM | TGI (SK-OV-3 ovarian): > 100 µM | TGI (HCT-116 colon): > 100 µM | TGI (A498 renal): > 100 µM | TGI (MCF7 breast): > 100 µM | TGI (TK-10 renal): > 100 µM | TGI (K-562 leukemia): > 100 µM | TGI (HT29 colon): > 100 µM | TGI (CAKI-1 renal): > 100 µM | TGI (MALME-3M melanoma): > 100 µM | TGI (MDA-N): > 100 µM | TGI (UACC-257 melanoma): > 100 µM | TGI (COLO 205 colon): > 100 µM | TGI (M14 melanoma): > 100 µM | TGI (SF-539 CNS): > 100 µM | TGI (SF-268 CNS): > 100 µM | TGI (MOLT-4 leukemia): > 100 µM | TGI (SK-MEL-2 melanoma): > 100 µM | TGI (OVCAR-8 ovarian): > 100 µM | TGI (EKVX NSCLC): > 100 µM | TGI (MDA-MB-435): > 100 µM | TGI (UO-31 renal): > 100 µM | TGI (OVCAR-5 ovarian): > 100 µM | TGI (NCI-H460 lung): > 100 µM | TGI (U251 CNS): > 100 µM | TGI (LOX IMVI melanoma): > 100 µM | TGI (RPMI-8226 leukemia): > 100 µM | TGI (DU-145 prostate): > 100 µM | TGI (786-0 renal): > 100 µM | TGI (HCT-15 colon): > 100 µM | TGI (HOP-92 NSCLC): > 100 µM | TGI (HCC-2998 colon): > 100 µM | TGI (OVCAR-3 ovarian): > 100 µM | TGI (A549 NSCLC): > 100 µM | TGI (SN12C renal): > 100 µM | TGI (NCI/ADR-RES ovarian): > 100 µM | TGI (HOP-62 NSCLC): > 100 µM | TGI (BT-549 breast): > 100 µM | TGI (SW-620 colon): > 100 µM | TGI (SK-MEL-5 melanoma): > 100 µM | TGI (HS 578T breast): > 100 µM | TGI (HL-60(TB) leukemia): > 100 µM | TGI (NCI-H23 lung): > 100 µM | TGI (RXF 393 renal): > 100 µM | TGI (PC-3 prostate): > 100 µM | TGI (SNB-75 CNS): > 100 µM | TGI (SK-MEL-28 melanoma): > 100 µM | TGI (SF-295 CNS): > 100 µM | TGI (SNB-19 CNS): > 100 µM | TGI (NCI-H522 lung): > 100 µM | TGI (OVCAR-4 ovarian): > 100 µM | TGI (KM12 colon): > 100 µM | TGI (MDA-MB-231 breast): > 100 µM | TGI (CCRF-CEM leukemia): > 100 µM | TGI (UACC-62 melanoma): > 100 µM | TGI (ACHN renal): > 100 µM | TGI (NCI-H226 lung): > 100 µM

COc1cc(OC)c(CSCC(NC(=O)OCC2c3ccccc3-c3ccccc32)C(=O)O)c(OC)c1 (stereo not given)
TGI (IGROV1 ovarian): > 10 µM | TGI (HCT-116 colon): > 10 µM | TGI (A498 renal): > 10 µM | TGI (TK-10 renal): > 10 µM | TGI (HT29 colon): > 10 µM | TGI (CAKI-1 renal): > 10 µM | TGI (MDA-N): > 10 µM | TGI (COLO 205 colon): > 10 µM | TGI (M14 melanoma): > 10 µM | TGI (SF-539 CNS): > 10 µM | TGI (SF-268 CNS): > 10 µM | TGI (OVCAR-8 ovarian): > 10 µM | TGI (EKVX NSCLC): > 10 µM | TGI (MDA-MB-435): > 10 µM | TGI (UO-31 renal): > 10 µM | TGI (OVCAR-5 ovarian): > 10 µM | TGI (U251 CNS): > 10 µM | TGI (DU-145 prostate): > 10 µM | TGI (HCT-15 colon): > 10 µM | TGI (HOP-92 NSCLC): > 10 µM | TGI (OVCAR-3 ovarian): > 10 µM | TGI (A549 NSCLC): > 10 µM | TGI (SN12C renal): > 10 µM | TGI (NCI/ADR-RES ovarian): > 10 µM | TGI (SW-620 colon): > 10 µM | TGI (SK-MEL-5 melanoma): > 10 µM | TGI (NCI-H23 lung): > 10 µM | TGI (RXF 393 renal): > 10 µM | TGI (PC-3 prostate): > 10 µM | TGI (SNB-75 CNS): > 10 µM | TGI (SK-MEL-28 melanoma): > 10 µM | TGI (SF-295 CNS): > 10 µM | TGI (SNB-19 CNS): > 10 µM | TGI (OVCAR-4 ovarian): > 10 µM | TGI (KM12 colon): > 10 µM | TGI (MDA-MB-231 breast): > 10 µM | TGI (ACHN renal): > 10 µM | TGI (NCI-H226 lung): > 10 µM

From PubChem BioAssay (NCI)
